Assays:
[1] = system: HcbA3C-His (HcbA3, NADH:FMN oxidoreductase); assay: NADH oxidation at […] nm, steady-state ping-pong fit; type: biochemical, Nocardioides sp. PD653; conditions: 20 mM KPi pH 7.5, 20°C, ping-pong bi-bi
[2] = target: HcbA3C-His (HcbA3, NADH:FMN oxidoreductase); assay: fluorescence quenching titration of flavin; type: binding, Nocardioides sp. PD653; conditions: 50 nM FMN, 20 mM KPi pH 7.5, 20°C; oxidized FMN

Km ([1]; NADH 10–120 µM) | Kd [2] | Km ([1]; FMN 1–8 µM) | SMILES
4.43 ± 0.69 µM | 750 ± 170 nM |  | Cc1cc2nc3c(=O)[nH]c(=O)nc-3n(C[C@H](O)[C@H](O)[C@H](O)COP(=O)(O)O)c2cc1C [FMN]
 |  | 51.7 ± 11.6 µM | NC(=O)C1=CN([C@@H]2O[C@H](COP(=O)(O)OP(=O)(O)OC[C@H]3O[C@@H](n4cnc5c(N)ncnc54)[C@H](O)[C@@H]3O)[C@@H](O)[C@H]2O)C=CC1 [NADH]

Reference: paper PMC7453296 (Journal of Pesticide Science, 2020)
